Activity calls are given as the source filed them. The calls are words filed in the database; no cut-off is given here.
Experiments:
MDA-MB-231 [1] = experiment: Increase in c-Fos protein expression in human MDA-MB-231 cells at 20 uM within 30 mins by Western blot analysis; assay type: functional, cell-based
MDA-MB-231 [2] = experiment: Increase in Egr-1 protein expression in human MDA-MB-231 cells at 20 uM within 30 mins by Western blot analysis; assay type: functional, cell-based
MDA-MB-231 [3] = experiment: Effect on p38 kinase protein level in human MDA-MB-231 cells at 20 uM up to 120 mins by Western blot analysis; assay type: functional, cell-based
MDA-MB-231 [4] = experiment: Effect on JNK2 protein level in human MDA-MB-231 cells at 20 uM up to 120 mins by Western blot analysis; assay type: functional, cell-based
MDA-MB-231 [5] = experiment: Effect on JNK1 protein level in human MDA-MB-231 cells at 20 uM up to 120 mins by Western blot analysis; assay type: functional, cell-based
MDA-MB-231 [6] = experiment: Effect on ERK2 protein level in human MDA-MB-231 cells at 20 uM up to 120 mins by Western blot analysis; assay type: functional, cell-based
MDA-MB-231 [7] = experiment: Effect on ERK1 protein level in human MDA-MB-231 cells at 20 uM up to 120 mins by Western blot analysis; assay type: functional, cell-based
[8] = target: MAP kinase p38 (Homo sapiens) (UniProt O15264+Q15759+Q16539+P53778); experiment: Increase in p38 kinase phosphorylation in human MDA-MB-231 cells at 20 uM by Western blot analysis; assay type: cell-based; conditions: TDE = time-dependent effect
[9] = target: Mitogen-activated protein kinase 9 (Homo sapiens) (UniProt P45984); experiment: Increase in JNK2 phosphorylation in human MDA-MB-231 cells at 20 uM by Western blot analysis; assay type: cell-based; conditions: TDE = time-dependent effect
Sequence of Mitogen-activated protein kinase 9 (Homo sapiens) (P45984 whole entry, looked up): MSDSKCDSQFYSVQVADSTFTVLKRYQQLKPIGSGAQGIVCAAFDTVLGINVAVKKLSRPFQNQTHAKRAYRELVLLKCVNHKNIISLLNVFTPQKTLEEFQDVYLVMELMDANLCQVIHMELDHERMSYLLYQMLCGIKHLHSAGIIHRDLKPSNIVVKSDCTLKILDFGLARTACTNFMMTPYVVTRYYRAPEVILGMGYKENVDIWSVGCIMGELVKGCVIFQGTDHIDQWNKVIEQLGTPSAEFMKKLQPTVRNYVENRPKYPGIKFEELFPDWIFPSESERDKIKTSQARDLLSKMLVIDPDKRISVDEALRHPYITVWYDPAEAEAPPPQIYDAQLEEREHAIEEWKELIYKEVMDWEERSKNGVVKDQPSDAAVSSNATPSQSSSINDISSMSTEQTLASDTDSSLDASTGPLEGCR

[10] = target: Mitogen-activated protein kinase 1 (Homo sapiens) (UniProt P28482); experiment: Increase in ERK2 phosphorylation in human MDA-MB-231 cells at 20 uM by Western blot analysis; assay type: cell-based; conditions: TDE = time-dependent effect
Sequence of Mitogen-activated protein kinase 1 (Homo sapiens) (P28482 whole entry): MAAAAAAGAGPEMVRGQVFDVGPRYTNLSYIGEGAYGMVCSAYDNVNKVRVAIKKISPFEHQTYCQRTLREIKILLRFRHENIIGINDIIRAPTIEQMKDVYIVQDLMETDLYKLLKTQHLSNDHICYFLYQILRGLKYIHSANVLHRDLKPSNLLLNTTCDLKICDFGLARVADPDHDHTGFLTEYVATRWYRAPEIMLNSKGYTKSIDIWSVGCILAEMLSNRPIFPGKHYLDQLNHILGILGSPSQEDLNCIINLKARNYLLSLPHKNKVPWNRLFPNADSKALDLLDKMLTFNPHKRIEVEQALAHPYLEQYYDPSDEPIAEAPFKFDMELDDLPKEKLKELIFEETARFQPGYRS

[11] = target: Mitogen-activated protein kinase 8 (Homo sapiens) (UniProt P45983); experiment: Increase in JNK1 phosphorylation in human MDA-MB-231 cells at 20 uM by Western blot analysis; assay type: cell-based; conditions: TDE = time-dependent effect
Sequence of Mitogen-activated protein kinase 8 (Homo sapiens) (P45983 whole entry): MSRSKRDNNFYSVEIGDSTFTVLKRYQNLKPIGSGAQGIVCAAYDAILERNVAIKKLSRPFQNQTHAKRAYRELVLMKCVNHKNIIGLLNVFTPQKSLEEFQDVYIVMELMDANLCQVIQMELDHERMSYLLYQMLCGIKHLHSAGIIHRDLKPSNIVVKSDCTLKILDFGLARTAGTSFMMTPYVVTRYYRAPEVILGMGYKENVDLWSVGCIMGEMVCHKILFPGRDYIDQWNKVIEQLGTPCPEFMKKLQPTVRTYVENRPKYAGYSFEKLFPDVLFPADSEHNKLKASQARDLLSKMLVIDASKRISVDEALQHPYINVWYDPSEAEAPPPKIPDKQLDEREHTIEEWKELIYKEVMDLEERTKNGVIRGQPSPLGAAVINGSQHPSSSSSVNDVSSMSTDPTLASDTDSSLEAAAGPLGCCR

[12] = target: Mitogen-activated protein kinase 3 (Homo sapiens) (UniProt P27361); experiment: Increase in ERK1 phosphorylation in human MDA-MB-231 cells at 20 uM by Western blot analysis; assay type: cell-based; conditions: TDE = time-dependent effect
Sequence of Mitogen-activated protein kinase 3 (Homo sapiens) (P27361 whole entry): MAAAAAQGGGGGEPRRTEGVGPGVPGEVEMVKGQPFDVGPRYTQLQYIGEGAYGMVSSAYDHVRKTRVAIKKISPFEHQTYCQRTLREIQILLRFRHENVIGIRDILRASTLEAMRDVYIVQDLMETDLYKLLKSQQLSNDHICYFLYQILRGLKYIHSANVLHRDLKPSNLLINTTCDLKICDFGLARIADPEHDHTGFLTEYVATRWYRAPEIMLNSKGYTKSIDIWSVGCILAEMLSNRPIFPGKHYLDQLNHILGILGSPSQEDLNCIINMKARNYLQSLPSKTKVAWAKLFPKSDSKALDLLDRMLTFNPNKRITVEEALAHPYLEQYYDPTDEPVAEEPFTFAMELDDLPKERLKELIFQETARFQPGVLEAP

MDA-MB-231 [13] = experiment: Induction of apoptosis in human MDA-MB-231 cells assessed as cleaved caspase-7 accumulation at 20 uM after 12 hrs by Western blot analysis; assay type: functional, cell-based
[14] = Stability of the compound in DMEM media assessed as compound degradation at 25 ppm after 3 hrs by HPLC; assay type: physicochemical; conditions: read-out: Activity

Compound	Activity (MDA-MB-231 [1])	Activity (MDA-MB-231 [2])	Activity (MDA-MB-231 [3])	Activity (MDA-MB-231 [4])	Activity (MDA-MB-231 [5])	Activity (MDA-MB-231 [6])	Activity (MDA-MB-231 [7])	Activity [8]	Activity [9]	Activity [10]	Activity [11]	Activity [12]	Activity (MDA-MB-231 [13])	degraded at 3 h, 25 ppm [14] [%]
O=c1c(O)c(-c2ccc(O)c(O)c2)oc2cc(O)cc(O)c12 [QUERCETIN]	Active	Active	inactive	inactive	inactive	inactive	inactive	tde	tde	tde	tde	tde	Active	60
COc1cc(O)c2c(=O)c(O)c(-c3ccc(O)c(O)c3)oc2c1 [RHAMNETIN]	Active	Active	inactive	inactive	inactive	inactive	inactive	tde	tde	tde	tde	tde	Active	4
